Test results: US20220402862A1 (Intellia Therapeutics, Inc., priority 2019, published 2022)

Tests used:
[1] = RNA encapsulation efficiency of LNPs (Ribogreen fluorescence assay); format: physicochemical; settings: LNP, sg:mRNA 1:1, N/P about 6, amine lipid/DSPC/cholesterol/PEG-2k-DMG 50/9/38/3; Table 2, Experiments 2-20
Summary of the method: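 LNPs were diluted in 1× TE with 0.2% Triton X-100 (total RNA) or without it (free RNA), stained with RiboGreen for ~10 min at room temperature in the dark, and read at Ex 488/Em 525 nm against standard curves of the starting RNA. Encapsulation efficiency = (Total − Free)/Total.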

[2] = Dynamic light scattering of LNPs: Z-average diameter, number average diameter, PDI; format: physicochemical; settings: LNP, sg:mRNA 1:1, N/P about 6, 50/9/38/3; Table 2, Experiments 2-20
Summary of the method: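 LNP samples were diluted in PBS and measured by DLS to give intensity-based Z-average diameter, number average diameter and polydispersity index. PDI describes size spread around the mean, with zero meaning a uniform population.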

[3] = pKa measurement of unformulated amine lipid (fluorescence, method of Jayaraman et al.); format: physicochemical; settings: 100 μM in 0.1 M phosphate buffer, pH 2.0-12.0
Method: The pKa of each amine lipid was determined according to the method in Jayaraman, et al. (Angewandte Chemie, 2012) with the following adaptations. […] Lipid was diluted to 100 μM in 0.1 M phosphate buffer (Boston Bioproducts) where the pH ranged from 2.0-12.0. Fluorescence intensity was measured using excitation and emission wavelengths of 321 nm and 448 nm.

Transthyretin (TTR) = experiment: Serum TTR ELISA in mice after LNP dosing; format: in vivo, CD-1 female mice; settings: guide G282 experiments; for Serum TTR % TSS: mouse serum TTR relative to TSS control; for Serum TTR: mouse serum, ELISA
Method: CD-1 female mice ranging from 6-10 weeks of age were used in each study. Animals were weighed and grouped according to body weight for preparing dosing solutions based on group average weight. LNPs were dosed via the lateral tail vein in a volume of 0.2 mL per animal (approximately 10 mL per kilogram body weight). The animals were periodically observed for adverse effects for at least 24 hours post dose. For studies measuring in vivo editing in liver, CD-1 female mice were dosed at 0.1 mg/kg unless otherwise noted. Animals were euthanized at 6 or 7 days by ex sanguination via cardiac puncture under isoflurane anesthesia. Liver tissue was collected from each animal for DNA extraction and analysis. Blood was collected into serum separator tubes or into tubes containing buffered sodium citrate for plasma as described herein. Cohorts of mice were measured for editing by Next-Generation Sequencing (NGS).
Blood was collected and the serum was isolated as indicated. The total mouse TTR serum levels were determined using a Mouse Prealbumin (Transthyretin) ELISA Kit (Aviva Systems Biology, Cat. OKIA00111). Briefly, sera were serial diluted with kit sample diluent to a final dilution of 10,000-fold for 0.1 mg/kg dose and final dilutions of 10,000-fold and of 2,500-fold for 0.3 mg/kg. This diluted sample was then added to the ELISA plates and the assay was carried out according to the manufacturer's directions.

Structure (SMILES)	Encapsulation (%) [1] [%]	Number mean (nm) [2] [nm]	PDI [2]	Z-avg (nm) [2] [nm]	pKa [3]	Serum TTR % TSS (Transthyretin (TTR)) [%]	Serum TTR (Transthyretin (TTR)) [µg/mL]
CCCCC/C=C\C/C=C\CCCCCCCC(=O)OCC(COC(=O)CCC(OCCCCCCCC)OCCCCCCCC)COC(=O)NC1CCN(CC)C1 (stereo not drawn) [Compound 41, 3-((4,4-bis(octyloxy)butanoyl)oxy)-2-((((1-ethylpyrrolidin-3-yl)carbamoyl)oxy)methyl)propyl (9Z,12Z)-octadeca-9,12-dienoate]	98	54.1	0.074	74.83	7.82	95	758
CCCCC/C=C\C/C=C\CCCCCCCC(=O)OCC(COC(=O)CCC(OCCCCCCCC)OCCCCCCCC)COC(=O)NC1CCCN(CC)C1 (stereo not drawn) [Compound 36, 3-((4,4-bis(octyloxy)butanoyl)oxy)-2-((((1-ethylpiperidin-3-yl)carbamoyl)oxy)methyl)propyl (9Z,12Z)-octadeca-9,12-dienoate]	98	59.48	0.024	73.71	6.58	99	795
CCCCCCCCCCOC(=O)CCCCCCCC(=O)OCC(COC(=O)CCC(OCCCCCCCCC)OCCCCCCCCC)COC(=O)OCCCN(CC)CC (stereo not drawn) [Compound 79, 1-(3-((4,4-bis(nonyloxy)butanoyl)oxy)-2-((((3-(diethylamino)propoxy)carbonyl)oxy)methyl)propyl) 9-decyl nonanedioate]	99	83.64	0.019	99.24	6.13	39	351
CCCCC/C=C\C/C=C\CCCCCCCC(=O)OCC(COC(=O)CCC(OCCCCCCCC)OCCCCCCCC)COC(=O)CCN(CC)CC (stereo not drawn) [Compound 27, 3-((4,4-bis(octyloxy)butanoyl)oxy)-2-(((3-(diethylamino)propanoyl)oxy)methyl)propyl (9Z,12Z)-octadeca-9,12-dienoate]	97	45	0.100	66	5.35	93	841
CCCCCCCCCCOC(=O)CCCCCCCC(=O)OCC(COC(=O)CCCCCC(=O)OC(CCCCCCCC)CCCCCCCC)COC(=O)OCCC1CCCN1C (stereo not drawn) [Compound 80, 1-decyl 9-(3-((7-(heptadecan-9-yloxy)-7-oxoheptanoyl)oxy)-2-((((2-(1-methylpyrrolidin-2-yl)ethoxy)carbonyl)oxy)methyl)propyl) nonanedioate]	98	87.3	0.016	105.8	6.21	116	873
CCCCCC/C=C\COC(=O)CCCC(=O)OCC(COC(=O)CCC(OCCCCCCCC)OCCCCCCCC)COC(=O)OCCCN(CC)CC (stereo not drawn) [Compound 56, (Z)-3-((4,4-bis(octyloxy)butanoyl)oxy)-2-((((3-(diethylamino)propoxy)carbonyl)oxy)methyl)propyl non-2-en-1-yl glutarate]	96	81.44	0.067	105.2	6.85	66	576
CCCCCCCCCC(CC)OC(=O)CCCCCCCC(=O)OCC(COC(=O)CCC(OCCCCCCCC)OCCCCCCCC)COC(=O)OCCCN(CC)CC (stereo not drawn) [Compound 95, 1-(3-((4,4-bis(octyloxy)butanoyl)oxy)-2-((((3-(diethylamino)propoxy)carbonyl)oxy)methyl)propyl) 9-(dodecan-3-yl) nonanedioate]	99	74.5	0.029	91.1	6.14	54	408
CCCCC/C=C\C/C=C\CCCCCCCC(=O)OCC(COC(=O)CCCCN(C)C)COC(=O)CCC(OCCCCCCCC)OCCCCCCCC (stereo not drawn) [Compound 25]	99	61	0.080	87	7.65	112	1013
CCCCC/C=C\C/C=C\CCCCCCCC(=O)OCC(COC(=O)CCC(OCCCCCCCC)OCCCCCCCC)COC(=O)C1(C)CCN(C)CC1 (stereo not drawn) [Compound 32, 3-((4,4-bis(octyloxy)butanoyl)oxy)-2-((((9Z,12Z)-octadeca-9,12-dienoyl)oxy)methyl)propyl 1,4-dimethylpiperidine-4-carboxylate]	99	61	0.040	77	7.32	43	388
CCCCC/C=C\C/C=C\CCCCCCCC(=O)OCC(COC(=O)CCC(OCCCCCCCC)OCCCCCCCC)COC(=O)NCC1CCCCN1CC (stereo not drawn) [Compound 38, 3-((4,4-bis(octyloxy)butanoyl)oxy)-2-(((((1-ethylpiperidin-2-yl)methyl)carbamoyl)oxy)methyl)propyl (9Z,12Z)-octadeca-9,12-dienoate]	96	74.58	0.019	91.5	7.17	60	481
CCCCCC/C=C\COC(=O)CCCCCCCC(=O)OCC(COC(=O)CCC(OCCCCCCCCC)OCCCCCCCCC)COC(=O)OCCCN(CC)CC (stereo not drawn) [Compound 83, (Z)-1-(3-((4,4-bis(nonyloxy)butanoyl)oxy)-2-((((3-(diethylamino)propoxy)carbonyl)oxy)methyl)propyl) 9-(non-2-en-1-yl) nonanedioate]	99	74.41	0.009	89.55	6.16	54	488
CCCCC/C=C\C/C=C\CCCCCCCC(=O)OCC(COC(=O)CCC(OCCCCCCCC)OCCCCCCCC)COC(=O)OCC1(C)CCCN(CC)C1 (stereo not drawn) [Compound 52, 3-((4,4-bis(octyloxy)butanoyl)oxy)-2-(((((1-ethyl-3-methylpiperidin-3-yl)methoxy)carbonyl)oxy)methyl)propyl (9Z,12Z)-octadeca-9,12-dienoate]	99	69.4	0.032	86.72	7.8	84	935
CCCCCCCCCCOC(=O)CCCCCCCC(=O)OCC(COC(=O)CCCC(=O)OC(CCCCCCCC)CCCCCCCC)COC(=O)NCCN(CC)CC (stereo not drawn) [Compound 88, 1-decyl 9-(3-(((2-(diethylamino)ethyl)carbamoyl)oxy)-2-(((5-(heptadecan-9-yloxy)-5-oxopentanoyl)oxy)methyl)propyl) nonanedioate]	98	99.51	0.011	117.1	6.84	77	582
CCCCCCCCCCOC(=O)CCCCCCCCCC(=O)OCC(COC(=O)CCC(OCCCCCCCC)OCCCCCCCC)COC(=O)OCCCN(CC)CC (stereo not drawn) [Compound 90, 1-(3-((4,4-bis(octyloxy)butanoyl)oxy)-2-((((3-(diethylamino)propoxy)carbonyl)oxy)methyl)propyl) 11-decyl undecanedioate]	99	81.15	0.017	99.62	6.14	67	504
CCCCC/C=C\C/C=C\CCCCCCCC(=O)OCC(COC(=O)CCC(OCCCCCCCC)OCCCCCCCC)COC(=O)N1CCN(CC)CC1 (stereo not drawn) [Compound 48, 3-((4,4-bis(octyloxy)butanoyl)oxy)-2-((((9Z,12Z)-octadeca-9,12-dienoyl)oxy)methyl)propyl 4-ethylpiperazine-1-carboxylate]	97	45.32	0.085	64.68	5.3	82	915
